Patent US11464859B2 (priority 2005, dated 2022)
“Also recorded” adds a separate entry of the source.

What was measured:
[1] = cited from earlier work
[2] = tested on: many different cancer cell lines; settings: cited from earlier work
[3] = tested on: acute promyelocytic leukaemia; settings: cited from earlier work; for efficacy and side effects compared with intravenous arsenic trioxide: oral, pilot study, patients with acute promyelocytic leukaemia, preliminary results
telomerase = telomerase (Homo sapiens, UniProt O14746); type: biochemical; settings: sodium salt
Sequence of telomerase (O14746 whole entry): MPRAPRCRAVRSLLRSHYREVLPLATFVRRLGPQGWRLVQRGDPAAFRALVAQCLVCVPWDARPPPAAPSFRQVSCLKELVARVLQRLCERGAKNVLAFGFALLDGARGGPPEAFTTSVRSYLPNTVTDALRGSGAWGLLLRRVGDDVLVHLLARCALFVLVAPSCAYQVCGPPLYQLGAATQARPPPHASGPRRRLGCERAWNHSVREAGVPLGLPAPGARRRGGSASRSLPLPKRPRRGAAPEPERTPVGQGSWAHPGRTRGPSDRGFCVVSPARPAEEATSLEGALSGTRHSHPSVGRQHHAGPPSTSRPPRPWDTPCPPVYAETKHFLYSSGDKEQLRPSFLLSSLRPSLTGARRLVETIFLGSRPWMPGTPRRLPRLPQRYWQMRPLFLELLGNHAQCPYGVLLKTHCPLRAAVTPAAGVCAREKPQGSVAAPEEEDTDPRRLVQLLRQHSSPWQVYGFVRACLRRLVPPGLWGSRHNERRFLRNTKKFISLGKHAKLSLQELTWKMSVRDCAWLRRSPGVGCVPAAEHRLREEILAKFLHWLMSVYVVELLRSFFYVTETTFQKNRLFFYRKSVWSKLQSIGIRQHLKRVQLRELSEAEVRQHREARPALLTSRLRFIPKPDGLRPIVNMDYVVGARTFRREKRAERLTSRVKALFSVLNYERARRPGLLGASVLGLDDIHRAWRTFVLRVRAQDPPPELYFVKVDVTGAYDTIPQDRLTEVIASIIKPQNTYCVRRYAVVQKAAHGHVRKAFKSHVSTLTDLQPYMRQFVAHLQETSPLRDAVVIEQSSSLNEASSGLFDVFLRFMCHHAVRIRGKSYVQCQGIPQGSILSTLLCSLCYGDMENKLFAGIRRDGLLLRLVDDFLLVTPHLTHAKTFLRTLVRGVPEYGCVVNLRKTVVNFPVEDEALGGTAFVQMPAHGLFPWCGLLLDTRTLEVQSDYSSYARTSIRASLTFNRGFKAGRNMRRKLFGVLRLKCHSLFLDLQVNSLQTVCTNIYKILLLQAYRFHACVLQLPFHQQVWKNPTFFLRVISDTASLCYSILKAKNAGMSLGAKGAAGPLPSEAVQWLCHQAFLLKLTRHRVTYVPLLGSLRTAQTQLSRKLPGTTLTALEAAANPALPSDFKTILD

[4] = tested on: human tumour xenografts (renal cell carcinoma RXF 944LX, mammary cancer MAXF 401)
[5] = tested on: telomeres of human cancer cells; type: cell-based; settings: sodium salt
[6] = in vivo
[7] = human, in vivo
[8] = tested on: prostate and/or urogenital cancer and bone metastasis; settings: human, in vivo
[9] = in vivo; remark: listed apart in the source
[10] = tested on: panel of 43 human tumour cell lines

Compound: arsenic trioxide
- incidence of the listed adverse events (fatigue, fever, oedema, chest pain, nausea, ECG abnormalities etc.) ([1]; patients treated with arsenic trioxide): ≥ 10 % of patients
- effect on QT interval ([1]; patients): prolong the QT and QT interval corrected for rate (QTc)
- effect on growth and apoptosis [2]: inhibits growth and promotes apoptosis
- clinical response ([3]; daily intravenous administration alone, newly diagnosed and relapsed acute promyelocytic leukaemia): complete responses in a large majority of patients
- efficacy and side effects compared with intravenous arsenic trioxide [3]: comparable

Compound: arsenous acid sodium salt
- inhibition of telomerase activity (telomerase): doesn't inhibit telomerase activity; also recorded: does not directly inhibit the telomerase activity
- anti-tumour activity in a human tumour model in vivo [4]: showed anti-tumour activity
- activity in subcutaneously transplanted human tumour xenografts ([4]; in vivo): borderline active in 2/7
- efficacy by schedule ([4]; in vivo): better
- effect on telomeres [5]: capable of shortening the telomeres of human cancer cells; also recorded: capable of shortening telomeres of human cancer cells, inducing cellular senescence and chromosomal abnormalities
- absorption [6]: rapidly absorbed
- persistence in plasma [6]: remained in the plasma for prolonged periods
- bioavailability ([6]; po): approximately 100%
- change in ECG activity, audiometry or neurological examinations [7]: no change
- disturbance of patients' well-being feeling [7]: did not cause any disturbance
- glucose levels [7]: always appeared elevated
- hemoglobin concentration at end [7]: 11.1
- hemoglobin concentration at start [7]: 10.0
- liver transaminases sGOT, sGPT and sGGT [7]: reversible increase
- sGGT elevation [7]: worsened
- sGGT elevation and thrombocytosis [7]: remained unchanged
- sGPT [7]: reversible and slight increase
- triglycerides and cholesterol level [7]: unchanged
- occurrence of the adverse events known for arsenic trioxide ([7]; po): none of these adverse events have been observed
- PSA levels and tumour size, overall [8]: a reduction in their PSA levels and tumour size
- change in PSA levels, judgement [8]: clinically significant change
- clinical response, overall [8]: Most patients showed at least a partial response
- decrease in tumour activity [8]: 99.15%
- further reduction in tumour activity [8]: 67.56%
- further tumour activity reduction [8]: 40.32%
- quality of life [8]: strongly ameliorated
- main target organs of toxicity [9]: bone marrow and lymphoid organs
- IC50 [10]: 0.6 µM
- combination effect [10]: additive effects
- potency among three arsenic compounds [10]: most potent
- potency relative to arsenic trioxide [10]: at least 15 fold

Compound: S1[As]2S[As]3S[As]2S[As]13 [tetra-arsenic tetrasulphide]
- efficacy and side effects compared with intravenous arsenic trioxide [3]: The same was noted
